From patent US20100273649A1, “Fungicidal Mixtures III” (BASF SE, priority 2007, published 2010)
Read-outs that look alike come from different tables or passages of the source.

Experiments:
Type in all cases: cell-based
Phytophthora infestans = details: active compound alone, 7 days after inoculation
Septoria tritici = assay: Activity against leaf blotch on wheat caused by Septoria tritici, microtiter test (Septtr); details: active compound alone, 7 days after inoculation
Botrytis cinerea = assay: Activity against grey mold caused by Botrytis cinerea in the microtiterplate test (Botrici)
Pyricularia oryzae = details: active compound alone, 7 days after inoculation
[1] = Botrytis cinerea, 168 h, active compound alone, 4 ppm, 7 days after inoculation, read-out: Observed efficacy
[2] = Botrytis cinerea, 168 h, active compound alone, 1 ppm, 7 days after inoculation, read-out: Observed efficacy

## Fc1ccc([C@]2(Cn3cncn3)O[C@H]2c2ccccc2Cl)cc1 (racemic) [Epoxiconazole, (2RS,3SR)-1-[3-(2-chlorophenyl)-2,3-epoxy-2-(4-fluorophenyl)propyl]-1H-1,2,4-triazole]
Phytophthora infestans; 0.25 ppm
  Observed efficacy: 12%
Septoria tritici; 0.016 ppm
  Observed efficacy: 14%
Botrytis cinerea; Botrytis cinerea, 168 h, active compound alone, 0.063 ppm, 7 days after inoculation, read-out: Observed efficacy
  inhibition of growth at 0.063 ppm: 4%

## O=C(Nc1ccccc1-c1ccc(Cl)cc1)c1cccnc1Cl [Boscalid, 2-chloro-N-(4′-chlorobiphenyl-2-yl)nicotinamide]
Botrytis cinerea; [1]
  inhibition of growth at 4 ppm: 45%

## O=C1C2CC=CCC2C(=O)N1SC(Cl)(Cl)Cl (stereo not shown) [Captan, 2-trichloromethylsulfanyl-3a,4,7,7a-tetrahydroisoindole-1,3-dione]
Phytophthora infestans; 1 ppm
  Observed efficacy: 26%
Botrytis cinerea; [2]
  inhibition of growth at 1 ppm: 64%

## N#Cc1c(Cl)c(Cl)c(Cl)c(C#N)c1Cl [Chlorothalonil, 2,4,5,6-tetrachloroisophthalonitrile]
Phytophthora infestans; 0.25 ppm
  Observed efficacy: 20%

## Cc1ccc(-c2c(Cl)nc(C#N)n2S(=O)(=O)N(C)C)cc1 [Cyazofamid, 4-chloro-2-cyano-N,N-dimethyl-5-(4-methylphenyl)-1H-imidazole-1-sulfonamide]
Botrytis cinerea; Botrytis cinerea, 168 h, active compound alone, 0.25 ppm, 7 days after inoculation, read-out: Observed efficacy
  inhibition of growth at 0.25 ppm: 0%

## C=C(C(=O)OCc1cccc(C(F)(F)F)c1)C(O)c1cccnc1 (stereo not shown) [I.1, (3-trifluoromethylphenyl)methyl 2-[hydroxyl(pyridine-3-yl)methyl]acrylate]
Pyricularia oryzae; 0.016 ppm
  Observed efficacy: 5%
Phytophthora infestans; 1 ppm
  Observed efficacy: 1%
Phytophthora infestans; 4 ppm
  Observed efficacy: 0%
Phytophthora infestans; 16 ppm
  Observed efficacy: 42%
Septoria tritici; 0.016 ppm
  Observed efficacy: 9%
Septoria tritici; 16 ppm
  Observed efficacy: 47%
Botrytis cinerea; [1]
  inhibition of growth at 4 ppm: 5%

## O=C(OCc1cccc(C(F)(F)F)c1)C(=Cc1ccccc1)C(O)c1cccnc1 (stereo not shown) [I.3, (3-trifluoromethylphenyl)methyl 2-[hydroxyl(pyridine-3-yl)methyl]-3-phenylacrylate]
Pyricularia oryzae; 0.25 ppm
  Observed efficacy: 2%
Phytophthora infestans; 1 ppm
  Observed efficacy: 8%
Phytophthora infestans; 4 ppm
  Observed efficacy: 10%
Septoria tritici; 0.063 ppm
  Observed efficacy: 51%
Botrytis cinerea; [2]
  inhibition of growth at 1 ppm: 9%
Botrytis cinerea; [1]
  inhibition of growth at 4 ppm: 16%

## Cc1ccc(C(C)NC(=O)[C@@H](NC(=O)OC(C)C)C(C)C)cc1 (stereo partly drawn) [Iprovalicarb, isopropyl [(1S)-2-methyl-1-(1-p-tolylethylcarbamoyl)propyl]carbamate]
Botrytis cinerea; Botrytis cinerea, 168 h, read-out: Observed efficacy
  inhibition of growth at 1 ppm: 2%

## COC=C(C(=O)OC)c1ccccc1COc1cccc(C(F)(F)F)n1 [Picoxystrobin, methyl 3-methoxy-2-[2-(6-trifluoromethylpyridin-2-yloxymethyl)phenyl]acrylate]
Pyricularia oryzae; 0.016 ppm
  Observed efficacy: 21%
Phytophthora infestans; 0.25 ppm
  Observed efficacy: 66%

## COC(=O)N(OC)c1ccccc1COc1ccn(-c2ccc(Cl)cc2)n1 [Pyraclostrobin, pyraclostrobin]
Pyricularia oryzae; 0.001 ppm
  Observed efficacy: 38%
Septoria tritici; 0.001 ppm
  Observed efficacy: 21%

## Cc1cc(C)nc(Nc2ccccc2)n1 [Pyrimethanil, 4,6-di-methylpyrimidin-2-ylphenylamine]
Septoria tritici; 16 ppm
  Observed efficacy: 50%

## zinc propylenebis(dithiocarbamate) polymer [Propineb]
Botrytis cinerea; active compound alone, 4 ppm, 7 days after inoculation
  Observed efficacy: 21%
